One assay relates to HepG2 cells. Kind of assay: Transfection of HepG2 cells with GpLuc mRNA, luminescence of supernatant (Example 3). Format: cell-based. Particulars: small amounts of lipidoid added to PB83, GpLuc mRNA, 24 h post transfection. As to the method: For luminescence analysis, a volume of 10 μL supernatant was transferred to a 96 well plate for GpLuc measurement. Then, coelenterazine working solution (100 μM) was prepared (1 mL coelenterazine stock solution (4.72 mM in EtOH) in 49 mL phosphate buffered saline supplemented with 5 mM NaCl, pH 7.2). A volume of 100 μL coelenterazine working solution was used as a substrate for GpLuc and measured after 5 seconds in a commercially available microplate reader.
The experiments were conducted as described in the previous Example, except that HepG2 cells were transfected instead of Sol8 cells. A volume of 0.2 mL HepG2 cells (10.000 cells) were seeded in a 96 well tissue culture plate. After removing the medium from each well, 100 μL RPMI 1640 medium (with 1% Penicillin and 1% Streptomycin, 1% L-Glutamin) was added to each well. Afterwards, HepG2 cells were transfected with 100 μL transfection mix (in triplicates) of polymer-lipidoid mRNA complexes and respective controls (in triplicates), and cells were incubated at 37° C. and 5% CO2 for 90 minutes. After incubation, 150 μL medium was exchanged with 150 μL fresh RPMI 1640 medium supplemented with 10% fetal calf serum. Twenty-four hours post transfection, 10 μL of supernatant of each well was extracted and used for further luminescence analysis.

For assay [1], the system named is differentiated Sol8 cells. Kind of assay: Transfection of Sol8 muscle cells with GpLuc mRNA, luminescence of supernatant (Example 2). The note with it: small amounts of lipidoid added to PB83, GpLuc mRNA (SEQ ID NO: 12), 24 h post transfection. The class given is cell-based, C3H mouse. As to the method: Sol8 is a myogenic cell line isolated by Daubas et al. from primary cultures of soleus muscle taken from the leg of a normal C3H mouse. A volume of 0.2 mL Sol8 cells (20.000 cells) were seeded in 96 well glass bottom plates (Softwell Hydrogel coated with collagen, elasticity E=12 kPa) on day 1. After removing the medium from each well, 100 μL DMEM medium (with 2% horse serum) was added to each well. Afterwards, on day 2, Sol8 cells were transfected with 100 μL transfection mix (in triplicates) of polymer-lipidoid complexes prepared according to Example 1) and respective controls (in triplicates), and cells were incubated at 37° C. and 5% CO2 for 120 minutes. After incubation, 150 μL medium was exchanged with 150 μL fresh DMEM medium supplemented with 10% fetal calf serum. Twenty-four hours post transfection, i.e. on day 3, 10 μL of supernatant of each well was extracted and used for further luminescence analysis, which was performed as described below. […]
For luminescence analysis, a volume of 10 μL supernatant was transferred to a 96 well plate for GpLuc measurement. […] A volume of 100 μL coelenterazine working solution was used as a substrate for GpLuc and measured after 5 seconds in a commercially available microplate reader.

SMILES strings stand for the structures.

Regarding `CCCCCCCCCCC(O)C[N+](C)(C)CCN(CC[N+](C)(C)CC(O)CCCCCCCCCC)CC[N+](C)(C)CC(O)CCCCCCCCCC` (centres unmarked) [3-C12-OH-cat], the “transfection efficiency (GpLuc luminescence)” value (from here on “transfection efficiency”) in the assay on HepG2 cells is “profound increase of transfection efficiency”.

On to `CCCCCCCCCCC(O)CNCCN(CCNCC(O)CCCCCCCCCC)CCNCC(O)CCCCCCCCCC` (centres unmarked) [3-C12-OH], for which the “transfection efficiency” value (in assay [1]; with HepG2 cells) was “profound increase of transfection efficiency” throughout. `CCCCCCCCCCCCNCCN(CCNCCCCCCCCCCCC)CCNCCCCCCCCCCCC` [3-C12]: the “transfection efficiency” value (in assay [1]; in the assay on HepG2 cells) was “profound increase of transfection efficiency” each time.

The values above are taken from patent US11478552B2, “Hybrid carriers for nucleic acid cargo” (CureVac AG, priority 2016, dated 2022).
